Where two headings read alike, the source gives them in different places. Residues, ends and D or L forms follow the SMILES beside them.
Assays:
[1] = Sedimentation equilibrium analytical ultracentrifugation of aPP variants, monomer-n-mer fit (self-association); format: physicochemical; conditions: for % monomer at 30 μM: 30 μM peptide; for % monomer at 30 μM / n (stoichiometry of the self-associated complex) / lnKA when n = 4: 25° C.; for n (stoichiometry of the self-associated complex): monomer-n-mer fit; for lnKA when n = 4: monomer-tetramer; for Kd (self-association, tetramer): n = 4, 25° C., calculated from ln KA
Method: Analytical ultracentrifugation experiments were performed using peptide solutions prepared in Tris.Cl buffer (25 mM Tris base, 50 mM NaCl, (pH 8.0)) at the appropriate concentrations (5 micromolar to 200 micromolar). Samples were then centrifuged to equilibrium at 25° C. at 42,000, 50,000, and 60,000 rpm. Data were collected with a 0.001 cm step size and successive scans were initiated at 2 h intervals. Samples were judged to have reached equilibrium when the radial concentration gradient remained unchanged over three successive scans using the Match module of Heteroanalysis software v1.1.19. The solvent density (ρ, rho) and partial specific volume ( ν, nu) were calculated using the Sedimentation Interpretation Program “Sednterp” software v1.08.
The data for each peptide (multiple concentrations at three speeds) was first fit globally to an equation describing the sedimentation of an ideal species of molecular weight Mn (Eq. 1) using Heteroanalysis software v1.1.19:
where C represents the concentration of the sedimenting species at distances r and r0 cm from the center of rotation; ν (nu) is the partial specific volume of the sedimenting species in cc/g; ρ (rho) is the density of the supporting buffer in g/cc; ω (omega) is the angular velocity of the rotor (radians/s); Mn is the “molar” molecular weight of sedimenting species (g/mol); R is the universal gas constant (8.315×10^7 ergs K^−1 mol^−1) and T is the temperature in degrees Kelvin.
In order to quantify this self-association, the data for each peptide was next fit globally to a monomer-n-mer equilibrium model using Eq. 2:
where n is the stoichiometry of the self-associated complex. Errors were calculated for n and lnKA using f-statistics to two standard deviations.
Samples were prepared in PBS buffer and centrifuged at speeds of 42,000 (41), 50,000 (42), or 60,000 RPM (43) at 25° C. Experimental data are shown as points; lines indicate the best fit to a monomer-n-mer model described by Eq. 2.

[2] = biological target: c-Src SH3 domain-GST fusion protein (Gallus gallus, UniProt P00523); experiment: Fluorescence polarization direct binding assay, c-Src SH3; parameters: species or system chicken; conditions: 50 nM fluorescently labeled ligand, read-out: Kd, c-Src SH3
Method: Polarization was measured by excitation with vertically polarized light at 485 nm and the fluorescence emission detected at 530 nm in both the vertical and horizontal directions. An average of five measurements were recorded for each well. Samples were equilibrated at room temperature for 25 min before analysis, a time sufficient for the binding reactions to reach equilibrium. The polarization data were fit using Kaleidagraph v3.6 software to Eq. 5, which is derived from first principles without assumptions. […] In this equation, Pobs is the observed polarization value at any given concentration of target protein (GST•SH3 domain). Pmin is the polarization of peptide^Flu at 50 nM in the absence of target protein. Pmax is the maximum polarization of peptide^Flu at saturation with target protein. Kd is the equilibrium dissociation constant. […] Free fits are shown. Kd values were estimated as described.

Hck kinase = biological target: T1, Hck kinase (Homo sapiens, UniProt P08631); experiment: Hck kinase activation, NADH-coupled assay; format: biochemical; conditions: for Activity / Fold-Activation: Activator 50 micromolar; for Fold-Activation: rate with ligand / rate without ligand; for EC50: read-out: Kact (concentration of activator at half-maximal activation)
T1 construct: His6 (N); made in house; host or cells: HighFive insect cells, co-infected with Hck and Csk baculovirus
T1 sequence (P08631 whole entry): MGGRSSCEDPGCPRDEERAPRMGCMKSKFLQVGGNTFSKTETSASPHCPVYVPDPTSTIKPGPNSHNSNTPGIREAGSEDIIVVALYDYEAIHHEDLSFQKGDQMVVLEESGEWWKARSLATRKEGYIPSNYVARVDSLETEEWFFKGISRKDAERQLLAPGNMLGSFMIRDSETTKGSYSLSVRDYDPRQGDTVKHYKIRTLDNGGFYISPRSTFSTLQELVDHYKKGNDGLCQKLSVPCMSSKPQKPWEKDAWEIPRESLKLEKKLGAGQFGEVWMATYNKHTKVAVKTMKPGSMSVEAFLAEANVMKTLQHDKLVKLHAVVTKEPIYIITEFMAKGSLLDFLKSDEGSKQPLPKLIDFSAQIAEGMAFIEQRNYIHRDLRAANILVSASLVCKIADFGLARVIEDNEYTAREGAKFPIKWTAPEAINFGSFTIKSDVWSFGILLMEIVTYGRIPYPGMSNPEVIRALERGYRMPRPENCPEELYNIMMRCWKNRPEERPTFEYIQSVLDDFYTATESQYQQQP
Method: Activation of Hck kinase was measured using a validated NADH-coupled assay as described. Briefly, purified Hck kinase (15 micromolar) was first pre-incubated with 500 micromolar ATP and 20 mM MgCl2 for about 30 min on ice to initiate autophosphorylation of Y416. The autophosphorylated product (0.55 micromolar final concentration) was then incubated in Hck Reaction Buffer (20 mM MgCl2, 0.1 mM DTT, 20 μg/mL BSA, 100 mM HEPES (pH 7.5)) for 10 min at room temperature with the indicated concentration of Nef or miniature protein. At this time the remaining assay components (1 mM PEP, 0.2 mM NADH, 6 U pyruvate kinase (Type II from rabbit muscle, Sigma), 6 U L-lactic dehydrogenase (Type II from rabbit muscle, Sigma), 600 micromolar substrate peptide, and 500 micromolar ATP) were added to initiate the reaction (total volume 200 microliters) and the absorbance at 340 nm was monitored every 10 sec for 10 min using a Beckman DU 730 UVN is Spectrophotomer. The activation constant Kact for each ligand was calculated from the initial rate as a function of ligand concentration as previously described, using Eq. 6. Fold activation was calculated by dividing the rate in the presence of ligand by the rate in the absence of ligand.
va=Vact[L]/(Kact±[L]) Equation 6.
In this equation va is velocity measured in the presence of ligand minus the velocity measured in its absence; Vact is the maximal activated velocity minus the velocity measured in the absence of ligand; [L] is the concentration of activator and Kact is concentration of activator at half-maximal activation.

Row | Molecule | % monomer at 30 μM [1] [%] | n (stoichiometry of the self-associated complex) [1] | lnKA when n = 4 [1] | Kd (self-association, tetramer) [1] | Kd [2] [µM] | Activity (Hck kinase) [nmol/s] | Fold-Activation (Hck kinase) | EC50 (Hck kinase) [µM] | Kd ([2]; PBS pH 7.4) [µM]
1 | GPSQPTAPGDDAPVEDLIRFYDNLRQYLNVVTRHRY [aPP^Y7AQ25R] | 78 | 4.06 | when n = 4 29.34 | 1.8 × 10^−13 M^3 |  |  |  |  | 
2 | CC[C@H](C)[C@H](NC(=O)[C@H](CC(C)C)NC(=O)[C@H](CC(=O)O)NC(=O)[C@H](CCC(=O)O)NC(=O)[C@@H](NC(=O)[C@@H]1CCCN1C(=O)[C@H](C)NC(=O)[C@H](CC(=O)O)NC(=O)[C@H](CCCNC(=N)N)NC(=O)[C@@H]1CCCN1C(=O)[C@H](CCCNC(=N)N)NC(=O)[C@H](CC(N)=O)NC(=O)[C@H](CCCNC(=N)N)NC(=O)[C@@H]1CCCN1C(=O)[C@@H]1CCCN1C(=O)[C@H](CC(C)C)NC(=O)[C@@H]1CCCN1C(=O)[C@@H]1CCCN1C(=O)[C@H](C)N)C(C)C)C(=O)N[C@@H](CCCNC(=N)N)C(=O)N[C@@H](Cc1ccccc1)C(=O)N[C@@H](Cc1ccc(O)cc1)C(=O)N[C@@H](CC(=O)O)C(=O)N[C@@H](CC(N)=O)C(=O)N[C@@H](CC(C)C)C(=O)N[C@@H](CCC(N)=O)C(=O)N[C@@H](CCC(N)=O)C(=O)N[C@@H](Cc1ccc(O)cc1)C(=O)N[C@@H](CC(C)C)C(=O)N[C@@H](CC(N)=O)C(=O)N[C@H](C(=O)N[C@H](C(=O)N[C@H](C(=O)N[C@@H](CCCNC(=N)N)C(=O)N[C@@H](Cc1c[nH]cn1)C(=O)N[C@@H](CCCNC(=N)N)C(=O)N[C@@H](Cc1ccc(O)cc1)C(N)=O)[C@@H](C)O)C(C)C)C(C)C [PP3] (H-APPLPPRNRPRDAPVEDLIRFYDNLQQYLNVVTRHRY-NH2) |  |  |  |  | 0.35 ± 0.04 | 83.9 ± 5.4 | 7 ± 3 | 48 ± 22 | 
3 | GPSQPTAPGDDAPVEDLIRFYDNLQQYLNVVTRHRY [aPP^Y7A] |  | 3.77 | when n = 4 26.28 | 3.9×10^−12 M^3 |  |  |  |  | 
4 | aPP^Y7AT6E: SEQ ID NO: 8, CPSQPEAPGDDAPVEDLIRFYDNLQQYLNVVTRHRY (Table 1 prints GPSQPE...) | 79 | 3.88 |  | 2.0 × 10^−13 M^3 |  |  |  |  | 
5 | CC[C@H](C)[C@H](NC(=O)[C@H](CC(C)C)NC(=O)[C@H](CC(=O)O)NC(=O)[C@H](CCC(=O)O)NC(=O)[C@@H](NC(=O)[C@@H]1CCCN1C(=O)[C@H](C)NC(=O)[C@H](CC(=O)O)NC(=O)[C@H](CC(=O)O)NC(=O)CNC(=O)[C@H](CCCNC(=N)N)NC(=O)[C@H](CC(N)=O)NC(=O)[C@H](CCCNC(=N)N)NC(=O)[C@@H]1CCCN1C(=O)[C@@H]1CCCN1C(=O)[C@H](CC(C)C)NC(=O)[C@@H]1CCCN1C(=O)[C@@H]1CCCN1C(=O)[C@H](C)N)C(C)C)C(=O)N[C@@H](CCCNC(=N)N)C(=O)N[C@@H](Cc1ccccc1)C(=O)N[C@@H](Cc1ccc(O)cc1)C(=O)N[C@@H](CC(=O)O)C(=O)N[C@@H](CC(N)=O)C(=O)N[C@@H](CC(C)C)C(=O)N[C@@H](CCC(N)=O)C(=O)N[C@@H](CCC(N)=O)C(=O)N[C@@H](Cc1ccc(O)cc1)C(=O)N[C@@H](CC(C)C)C(=O)N[C@@H](CC(N)=O)C(=O)N[C@H](C(=O)N[C@H](C(=O)N[C@H](C(=O)N[C@@H](CCCNC(=N)N)C(=O)N[C@@H](Cc1c[nH]cn1)C(=O)N[C@@H](CCCNC(=N)N)C(=O)N[C@@H](Cc1ccc(O)cc1)C(N)=O)[C@@H](C)O)C(C)C)C(C)C [PP2] (H-APPLPPRNRGDDAPVEDLIRFYDNLQQYLNVVTRHRY-NH2) |  |  |  |  |  | 138.8 ± 7.6 | 13 ± 5 | 48 ± 13 | 1.3 ± 0.2
6 | GPSQPTAPGDDAVPEDLIRFYDNLQQYLNVVTRHRY [aPP^Y7AP13VV14P] | 90 | 4.48 | when n = 4 27.92 | 7.5 × 10^−13 M^3 |  |  |  |  | 
7 | GPSQPTYPGDDAPVEDLIRAYDNLQQYLNVVTRHRY [aPP^F20A] |  | 3.87 | when n = 4 23.29 | 7.6×10^−11 M^3 |  |  |  |  | 
8 | CC[C@H](C)[C@H](NC(=O)[C@H](CC(C)C)NC(=O)[C@H](CC(=O)O)NC(=O)[C@H](CCC(=O)O)NC(=O)[C@@H](NC(=O)[C@@H]1CCCN1C(=O)[C@H](C)NC(=O)[C@H](CC(=O)O)NC(=O)[C@H](CC(=O)O)NC(=O)CNC(=O)[C@@H]1CCCN1C(=O)[C@H](CC(N)=O)NC(=O)[C@H](CCCNC(=N)N)NC(=O)[C@@H]1CCCN1C(=O)[C@@H]1CCCN1C(=O)[C@H](CC(C)C)NC(=O)[C@@H]1CCCN1C(=O)[C@@H]1CCCN1C(=O)[C@H](C)N)C(C)C)C(=O)N[C@@H](CCCNC(=N)N)C(=O)N[C@@H](Cc1ccccc1)C(=O)N[C@@H](Cc1ccc(O)cc1)C(=O)N[C@@H](CC(=O)O)C(=O)N[C@@H](CC(N)=O)C(=O)N[C@@H](CC(C)C)C(=O)N[C@@H](CCC(N)=O)C(=O)N[C@@H](CCC(N)=O)C(=O)N[C@@H](Cc1ccc(O)cc1)C(=O)N[C@@H](CC(C)C)C(=O)N[C@@H](CC(N)=O)C(=O)N[C@H](C(=O)N[C@H](C(=O)N[C@H](C(=O)N[C@@H](CCCNC(=N)N)C(=O)N[C@@H](Cc1c[nH]cn1)C(=O)N[C@@H](CCCNC(=N)N)C(=O)N[C@@H](Cc1ccc(O)cc1)C(N)=O)[C@@H](C)O)C(C)C)C(C)C [PP1] (H-APPLPPRNPGDDAPVEDLIRFYDNLQQYLNVVTRHRY-NH2) |  |  |  |  |  | 83.6 ± 6.0 | 8 ± 3 |  | 3.68 ± 0.06

From patent publication US20100273722A1, “MODIFIED MINIATURE PROTEINS” (Yale University, priority 2007, published 2010)
